Source: patent US6737383B1, “Herbicidal oxadiazolidines” (priority 1999, dated 2004)

Assays:
cocklebur = experiment: Test B pre/postemergence cocklebur; format: in vivo, Xanthium strumarium; conditions: Preemergence; for Plant response rating, Cocklebur: Rate 125 g/ha
Method in brief: (§1)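 Test chemicals in a non-phytotoxic solvent mixture with surfactant were sprayed preemergence onto planted seeds and postemergence onto plants 2 to 18 cm tall (1- to 4-leaf stage). After twelve to sixteen days in a greenhouse, injury was visually rated against untreated controls from 0 (no effect) to 10 (complete control).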

sugar beet = experiment: Test B pre/postemergence sugar beet; format: in vivo, Beta vulgaris; conditions: Preemergence; for Plant response rating, Sugarbeets: Rate 125 g/ha
Method in brief: as §1

blackgrass = experiment: Test B pre/postemergence blackgrass; format: in vivo, Alopecurus myosuroides; conditions: Preemergence; for Plant response rating, Blackgrass: Rate 125 g/ha
Method in brief: as §1

crabgrass = experiment: Test B pre/postemergence crabgrass; format: in vivo, Digitaria sanguinalis; conditions: Preemergence; for Plant response rating, Crabgrass: Rate 125 g/ha
Method in brief: as §1

rape = experiment: Test B pre/postemergence rape; format: in vivo, Brassica napus; conditions: Preemergence; for Plant response rating, Rape: Rate 125 g/ha
Method in brief: as §1

wild oat = experiment: Test B pre/postemergence wild oat; format: in vivo, Avena fatua; conditions: Preemergence; for Plant response rating, Wild oats: Rate 125 g/ha
Method in brief: as §1

bedstraw = experiment: Test B pre/postemergence bedstraw; format: in vivo, Galium aparine; conditions: Preemergence; for Plant response rating, Bedstraw: Rate 125 g/ha
Method in brief: as §1

soybean = experiment: Test B pre/postemergence soybean; format: in vivo, Glycine max; conditions: Preemergence; for Plant response rating, Soybean: Rate 125 g/ha
Method in brief: as §1

velvetleaf = experiment: Test B pre/postemergence velvetleaf; format: in vivo, Abutilon theophrasti; conditions: Preemergence; for Plant response rating, Velvetleaf: Rate 125 g/ha
Method in brief: as §1

wheat = experiment: Test B pre/postemergence wheat; format: in vivo, Triticum aestivum; conditions: Preemergence; for Plant response rating, Wheat: Rate 125 g/ha
Method in brief: as §1

morningglory = experiment: Test B pre/postemergence morningglory; format: in vivo, Ipomoea hederacea; conditions: Preemergence; for Plant response rating, Morningglory: Rate 125 g/ha
Method in brief: as §1

purple nutsedge = experiment: Test B pre/postemergence purple nutsedge; format: in vivo, Cyperus rotundus; conditions: Preemergence; for Plant response rating, Nutsedge: Rate 125 g/ha
Method in brief: as §1

giant foxtail = experiment: Test B pre/postemergence giant foxtail; format: in vivo, Setaria faberii; conditions: Preemergence; for Plant response rating, Giant foxtail: Rate 125 g/ha
Method in brief: as §1

corn = experiment: Test B pre/postemergence corn; format: in vivo, Zea mays; conditions: Preemergence; for Plant response rating, Corn: Rate 125 g/ha
Method in brief: as §1

surinam grass = experiment: Test B pre/postemergence surinam grass; format: in vivo, Brachiaria decumbens; conditions: Preemergence; for Plant response rating, B. signalgrass: Rate 125 g/ha
Method in brief: as §1

pigweed = experiment: Test B pre/postemergence pigweed; format: in vivo, Amaranthus retroflexus; conditions: Preemergence; for Plant response rating, Redroot pigweed: Rate 125 g/ha
Method in brief: as §1

[1] = Rate 62 g/ha, scale of 0 to 10 where 0 is no effect and 10 is complete control
[2] = scale of 0 to 10 where 0 is no effect and 10 is complete control
[3] = Rate 250 g/ha, scale 0 (no effect) to 10 (complete control)
[4] = Rate 500 g/ha, scale 0 to 10 (0 no effect, 10 complete control)

CC(C)N(C(=O)n1oc(=O)n(C(C)C(=S)N(C)C)c1=O)c1ccc(F)cc1 (centres unmarked) [Compound 728]
Cocklebur plant response rating (cocklebur; [1]): 0 | Plant response rating, Cocklebur (cocklebur; [2]): 0 | Cocklebur plant response rating (cocklebur; [3]): 0 | Cocklebur plant response rating (cocklebur; [4]): 0 | Sugarbeets plant response rating (sugar beet; [1]): 0 | Plant response rating, Sugarbeets (sugar beet; [2]): 0 | Sugarbeets plant response rating (sugar beet; [3]): 4 | Sugarbeets plant response rating (sugar beet; [4]): 4 | Blackgrass plant response rating (blackgrass; [1]): 0 | Plant response rating, Blackgrass (blackgrass; [2]): 9 | Blackgrass plant response rating (blackgrass; [3]): 9 | Blackgrass plant response rating (blackgrass; [4]): 10 | Crabgrass plant response rating (crabgrass; [1]): 6 | Plant response rating, Crabgrass (crabgrass; [2]): 6 | Crabgrass plant response rating (crabgrass; [4]): 7 | Rape plant response rating (rape; [1]): 0 | Plant response rating, Rape (rape; [2]): 3 | Rape plant response rating (rape; [3]): 6 | Rape plant response rating (rape; [4]): 8 | Wild oats plant response rating (wild oat; [1]): 0 | Plant response rating, Wild oats (wild oat; [2]): 4 | Wild oats plant response rating (wild oat; [3]): 10 | Wild oats plant response rating (wild oat; [4]): 10 | Bedstraw plant response rating (bedstraw; [1]): 0 | Plant response rating, Bedstraw (bedstraw; [2]): 0 | Bedstraw plant response rating (bedstraw; [3]): 0 | Bedstraw plant response rating (bedstraw; [4]): 2 | Soybean plant response rating (soybean; [1]): 0 | Plant response rating, Soybean (soybean; [2]): 0 | Soybean plant response rating (soybean; [3]): 0 | Soybean plant response rating (soybean; [4]): 0 | Velvetleaf plant response rating (velvetleaf; [1]): 0 | Plant response rating, Velvetleaf (velvetleaf; [2]): 0 | Velvetleaf plant response rating (velvetleaf; [3]): 0 | Velvetleaf plant response rating (velvetleaf; [4]): 0 | Wheat plant response rating (wheat; [1]): 0 | Plant response rating, Wheat (wheat; [2]): 0 | Wheat plant response rating (wheat; [3]): 5 | Wheat plant response rating (wheat; [4]): 7 | Morningglory plant response rating (morningglory; [1]): 0 | Plant response rating, Morningglory (morningglory; [2]): 0 | Morningglory plant response rating (morningglory; [3]): 2 | Morningglory plant response rating (morningglory; [4]): 2 | Nutsedge plant response rating (purple nutsedge; [1]): 0 | Plant response rating, Nutsedge (purple nutsedge; [2]): 0 | Giant foxtail plant response rating (giant foxtail; [1]): 4 | Plant response rating, Giant foxtail (giant foxtail; [2]): 7 | Giant foxtail plant response rating (giant foxtail; [3]): 8 | Giant foxtail plant response rating (giant foxtail; [4]): 8 | Corn plant response rating (corn; [1]): 0 | Plant response rating, Corn (corn; [2]): 0 | Corn plant response rating (corn; [3]): 0 | Corn plant response rating (corn; [4]): 0 | B. signalgrass plant response rating (surinam grass; [1]): 5 | Plant response rating, B. signalgrass (surinam grass; [2]): 8 | B. signalgrass plant response rating (surinam grass; [3]): 8 | B. signalgrass plant response rating (surinam grass; [4]): 9 | Redroot pigweed plant response rating (pigweed; [1]): 0 | Plant response rating, Redroot pigweed (pigweed; [2]): 7 | Redroot pigweed plant response rating (pigweed; [3]): 8 | Redroot pigweed plant response rating (pigweed; [4]): 9

COC(CCl)n1c(=O)on(C(=O)N(c2ccc(F)cc2F)C(C)C)c1=O (centres unmarked) [Compound 737]
Plant response rating, Cocklebur (cocklebur; [2]): 0 | Cocklebur plant response rating (cocklebur; [3]): 0 | Cocklebur plant response rating (cocklebur; Rate 62 g/ha, scale 0 to 10): 0 | Cocklebur plant response rating (cocklebur; [4]): 0 | Plant response rating, Sugarbeets (sugar beet; [2]): 5 | Sugarbeets plant response rating (sugar beet; [3]): 6 | Sugarbeets plant response rating (sugar beet; Rate 62 g/ha, scale 0 to 10): 1 | Sugarbeets plant response rating (sugar beet; [4]): 6 | Plant response rating, Blackgrass (blackgrass; [2]): 9 | Blackgrass plant response rating (blackgrass; [3]): 9 | Blackgrass plant response rating (blackgrass; Rate 62 g/ha, scale 0 to 10): 6 | Blackgrass plant response rating (blackgrass; [4]): 10 | Plant response rating, Crabgrass (crabgrass; [2]): 9 | Crabgrass plant response rating (crabgrass; [3]): 10 | Crabgrass plant response rating (crabgrass; Rate 62 g/ha, scale 0 to 10): 8 | Crabgrass plant response rating (crabgrass; [4]): 10 | Plant response rating, Rape (rape; [2]): 0 | Rape plant response rating (rape; [3]): 5 | Rape plant response rating (rape; Rate 62 g/ha, scale 0 to 10): 0 | Rape plant response rating (rape; [4]): 6 | Plant response rating, Wild oats (wild oat; [2]): 6 | Wild oats plant response rating (wild oat; [3]): 8 | Wild oats plant response rating (wild oat; Rate 62 g/ha, scale 0 to 10): 5 | Wild oats plant response rating (wild oat; [4]): 9 | Plant response rating, Bedstraw (bedstraw; [2]): 0 | Bedstraw plant response rating (bedstraw; [3]): 0 | Bedstraw plant response rating (bedstraw; Rate 62 g/ha, scale 0 to 10): 0 | Bedstraw plant response rating (bedstraw; [4]): 0 | Plant response rating, Soybean (soybean; [2]): 0 | Soybean plant response rating (soybean; [3]): 0 | Soybean plant response rating (soybean; Rate 62 g/ha, scale 0 to 10): 0 | Soybean plant response rating (soybean; [4]): 0 | Plant response rating, Velvetleaf (velvetleaf; [2]): 0 | Velvetleaf plant response rating (velvetleaf; [3]): 4 | Velvetleaf plant response rating (velvetleaf; Rate 62 g/ha, scale 0 to 10): 0 | Velvetleaf plant response rating (velvetleaf; [4]): 5 | Plant response rating, Wheat (wheat; [2]): 0 | Wheat plant response rating (wheat; [3]): 2 | Wheat plant response rating (wheat; Rate 62 g/ha, scale 0 to 10): 0 | Wheat plant response rating (wheat; [4]): 2 | Plant response rating, Morningglory (morningglory; [2]): 2 | Morningglory plant response rating (morningglory; [3]): 2 | Morningglory plant response rating (morningglory; Rate 62 g/ha, scale 0 to 10): 1 | Morningglory plant response rating (morningglory; [4]): 3 | Plant response rating, Nutsedge (purple nutsedge; [2]): 0 | Nutsedge plant response rating (purple nutsedge; [3]): 0 | Nutsedge plant response rating (purple nutsedge; Rate 62 g/ha, scale 0 to 10): 0 | Nutsedge plant response rating (purple nutsedge; [4]): 0 | Plant response rating, Giant foxtail (giant foxtail; [2]): 10 | Giant foxtail plant response rating (giant foxtail; [3]): 10 | Giant foxtail plant response rating (giant foxtail; Rate 62 g/ha, scale 0 to 10): 9 | Giant foxtail plant response rating (giant foxtail; [4]): 10 | Plant response rating, Corn (corn; [2]): 2 | Corn plant response rating (corn; [3]): 3 | Corn plant response rating (corn; Rate 62 g/ha, scale 0 to 10): 0 | Corn plant response rating (corn; [4]): 6 | B. signalgrass plant response rating (surinam grass; [1]): 4 | Plant response rating, B. signalgrass (surinam grass; [2]): 4 | B. signalgrass plant response rating (surinam grass; [3]): 8 | B. signalgrass plant response rating (surinam grass; [4]): 9 | Plant response rating, Redroot pigweed (pigweed; [2]): 3 | Redroot pigweed plant response rating (pigweed; [3]): 6 | Redroot pigweed plant response rating (pigweed; Rate 62 g/ha, scale 0 to 10): 2 | Redroot pigweed plant response rating (pigweed; [4]): 8
